In test [1] the test system is C57BL/6J mice with transient MCAo. The test can be described thus: Rotarod test after transient MCAo. The format is in vivo, mouse. The conditions noted are these: FIG. 10B, vs saline. On the procedure:
C57BL/6J mice (ca. 20 g) were anaesthetized under isoflurane and, after dissection, a 6.0 silicon-coated monofilament suture was inserted into the external carotid artery to occlude the middle cerebral artery (MCAo). The occlusion was carried out for 60 minutes under temperature control.
Only animals with a ‘neuroscore’ of 4 or greater were considered for further testing (n=8-10 animals/group). At six hours post-occlusion, mice were injected daily with 350 mg/kg of Apo-transferrin (i.p.) or an equal volume of saline for a total of seven days, as well as with 50 mg/kg Bromodeoxyuridine (BrdU; Sigma-Aldrich Chemical, St. Louis, Mo.), both articles delivered by intraperitoneal administration. Weight changes were monitored daily.
Mice were prepared as indicated in Example 9 above and were subjected to assessments at 3 days and 1, 2, 3, 4 weeks post-MCAo, as indicated (n=8-10 animals/group). Motor coordination (i.e. equilibrium behavior and locomotor ability as a function of cortico-striatal function) was assessed using a rotarod test. Learning and memory capacity were measured using the NORT (novel object recognition test; for example, Anglada-Huguet et al., 2014, Molecular Neurobiology, vol. 49, pages 784-795; Denninger et al., 2018, J. Vis. Exp., vol. 141, e58593).
The time that it takes an animal to fall (Latency to fall) from the rotarod is shown vs time after MCAo. […]

Test [2] has as its system primary human brain cortex-derived neural progenitor cells. The experiment in a line: Differentiation of primary human neural progenitor cells (β-III-tubulin / GFAP staining). The format is cell-based. The conditions noted are these: 0.8 mg/mL, 72 hours. Here is the method: Neural progenitor cells maintained as neurospheres were obtained from Lonza (PT-2599). Cells were thawed from a frozen vial of neurospheres and cultured in Human NeuroCult™ NS-A Complete Proliferation media (Stemcell Technologies) for 2 weeks. Neurospheres were dissociated to single cells and plated in Laminin coated wells of assay plates. The neural progenitor cells were seeded in NeuroCult™ NS-A Basal media containing 1/10th concentration of the recommended proliferation supplements, in the absence or presence of ApoTf (0.8 mg/mL) for 72 hours. At the time of analysis, cells were fixed with paraformaldehyde, stained for β-III-tubulin (R&D Systems, MAB1195) and GFAP (Invitrogen, PA3-16727), and imaged on a Molecular Devices Nano imaging instrument. Image analysis was performed by assessing the relative numbers of cells staining positive for β-III-tubulin or GFAP. Values for the indicated conditions are shown with standard deviations as “% β-III-Tubulin Positive” cells (FIG. 2A) or “% GFAP Positive” cells (FIG. 2B).

Entries after “also recorded” stand apart in the source; their conditions may differ.

Take “apo-transferrin: iron-free form of transferrin protein, obtained and purified from pooled human plasma”: the “motor and balance skills (Latency to fall from rotarod)” value in test [1] is “better motor skills; also recorded: increased motor and balance skills”; in test [1] (listed as apoTf) it was “better overall abilities to remain on the rotarod”. In addition, the “% β-III-Tubulin Positive cells (neurons)” value in test [2] (FIG. 2A) is “dramatically increases the percentage of cells differentiated to neurons; also recorded: induces primary human neural progenitor cells to become β-III-tubulin protein positive neurons”. Also, the “% GFAP Positive cells (astrocytes)” value in test [2] (FIG. 2B) is given as “dramatically increases; also recorded: GFAP protein positive astrocytes cells”.

For the origin of these results see patent publication US20230265167A1, “COMPOSITIONS HAVING NEUROREGENERATIVE APPLICATIONS” (GRIFOLS WORLDWIDE OPERATIONS LIMITED, priority 2020, published 2023).
